From PMC11355573, “A New Renieramycin T Right-Half Analog as a Small Molecule Degrader of STAT3” (Marine Drugs, 2024)

Biological target: T1, STAT3 (Homo sapiens, UniProt P40763)
T1 construct: endogenous in cells; host or cells: NCI-H460 (ATCC HTB-177)
Test: STAT3 immunofluorescence and confocal microscopy
Type: cell-based
Conditions: H460, 2.5 µM, 24 h (p < 0.001)
Description: To explore whether DH_31 could suppress STAT3, H460 cells were treated with 1 and 2.5 μM of DH_31 for 24 h. Immunofluorescence and confocal microscopy were performed to visualize STAT3 expression.
Immunofluorescence staining and confocal microscopy were conducted to visualize the subcellular localization and spatial distribution of specific proteins. H460 cells (1.0 × 10^4 cells per well) were seeded in 96-well plates. Following overnight incubation, the cells were treated with different concentrations of DH_31 (0–2.5 μM) for 24 h at 37 °C. After treatment, the cells were permeabilized with 0.5% Triton-X in PBS for 5 min, followed by the blocking of non-specific proteins with 10% FBS in 0.1% Triton-X PBS for 1 h at room temperature. Subsequently, the cells were exposed to primary antibodies (STAT3, Slug, Snail, Vimentin, N-cadherin, ZO1, and ZEB1) and incubated at 4 °C overnight. The cells were then incubated with Alexa Fluor 488- or 594-conjugated secondary antibodies and Hoechst 33342 for 1 h at room temperature. After washing with PBS, the cells were covered with 50% glycerol. The images were captured by confocal microscopy (Zeiss, Jena, Germany). The fluorescence intensity was measured using ImageJ™ software (Image J 1.52a, Rasband, W., National Institutes of Health, Bethesda, MD, USA).

T1 sequence (P40763 whole entry): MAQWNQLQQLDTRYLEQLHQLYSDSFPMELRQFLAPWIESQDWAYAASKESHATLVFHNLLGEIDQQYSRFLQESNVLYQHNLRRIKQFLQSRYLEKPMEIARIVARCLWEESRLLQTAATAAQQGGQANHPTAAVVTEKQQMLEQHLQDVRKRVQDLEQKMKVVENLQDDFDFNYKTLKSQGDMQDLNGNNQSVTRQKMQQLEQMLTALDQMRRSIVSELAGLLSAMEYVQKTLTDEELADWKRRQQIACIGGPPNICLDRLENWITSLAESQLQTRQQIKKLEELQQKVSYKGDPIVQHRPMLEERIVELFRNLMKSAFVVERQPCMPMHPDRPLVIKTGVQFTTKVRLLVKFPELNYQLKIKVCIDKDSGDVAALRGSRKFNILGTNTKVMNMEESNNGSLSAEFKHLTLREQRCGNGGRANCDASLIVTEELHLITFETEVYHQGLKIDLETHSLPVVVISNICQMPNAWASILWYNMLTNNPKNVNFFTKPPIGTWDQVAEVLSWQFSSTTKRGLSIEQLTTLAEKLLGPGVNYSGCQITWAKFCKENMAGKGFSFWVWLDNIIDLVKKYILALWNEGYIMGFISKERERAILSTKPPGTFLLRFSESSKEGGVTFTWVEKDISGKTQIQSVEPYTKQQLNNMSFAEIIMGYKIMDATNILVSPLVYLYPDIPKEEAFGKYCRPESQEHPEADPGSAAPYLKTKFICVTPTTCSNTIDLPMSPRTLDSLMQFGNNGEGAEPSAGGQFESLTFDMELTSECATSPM

## COc1c(C)cc2c(c1O)[C@@H]1CN(Cc3ccc4ccccc4c3)[C@@H](C#N)[C@H](C2)N1C [DH_31, (1R,4R,5S)-10-hydroxy-9-methoxy-8,11-dimethyl-3-(naphthalen-2-ylmethyl)-1,2,3,4,5,6-hexahydro-1,5-epiminobenzo[d]azocine-4-carbonitrile]
  STAT3 expression (immunofluorescence): significant reduction
